Molecular target: T1, Recombinant human LTC4 synthase (Homo sapiens, UniProt Q16873)
T1 construct: made in house; host or cells: Pichia pastoris ('Piccia pastoralis' [sic])
T1 sequence (Q16873 1-150): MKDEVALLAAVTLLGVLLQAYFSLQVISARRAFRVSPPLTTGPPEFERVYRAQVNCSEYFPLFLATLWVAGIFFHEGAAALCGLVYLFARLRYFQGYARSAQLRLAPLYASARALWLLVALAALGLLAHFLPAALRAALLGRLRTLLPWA
Experiment: LTC4 synthase in vitro assay (LTA4 to LTC4, HTRF detection)
Format: biochemical
Settings: for inhibition at 10 µM: 5 min, total concentration of title compound in the assay 10 μM
Summary of the method: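 Purified recombinant human LTC4 synthase expressed in Pichia (0.5 μg/mL total protein) was preincubated with inhibitor at 10 μM final for 10 min at room temperature in PBS pH 7.4 with 5 mM GSH. LTA4 was then added at 2.5 μM final, and after 5 min at room temperature LTC4 was detected by HTRF.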

IC50 [µM]	inhibition at 10 µM [%]	Compound
0.25	–	Cc1ccc(N(C)c2ccc(C(=O)c3ccc(C(=O)c4ccccc4)c(C(=O)O)c3)nc2)cc1 [5:21]
0.442	–	Cc1cc(Cl)ccc1N(C)c1ccc(C(=O)c2ccc(C(=O)c3ccccc3)c(C(=O)O)c2)nc1 [5:22, 2-Benzoyl-5-{5-[(4-chloro-2-methylphenyl)(methyl)amino]picolinoyl}benzoic acid]
0.184	–	CCc1ccc(N(C)c2ccc(C(=O)c3ccc(C(=O)c4ccccc4)c(C(=O)O)c3)nc2)cc1 [5:23]
0.077	–	CN(c1ccc(Cl)cc1)c1ccc(C(=O)c2ccc(C(=O)c3ccc4c(c3)OCO4)c(C(=O)O)c2)nc1 [5:24, 5-{5-[(4-Chlorophenyl)(methyl)amino]picolinoyl}-2-(3,4-methylenedioxy-benzoyl)benzoic acid]
0.86	–	CN(c1ccc(Cl)cc1)c1ccc(C(=O)c2ccc(C(=O)C3CCCO3)c(C(=O)O)c2)nc1 (centres unmarked) [5:25, 5-{5-[(4-Chlorophenyl)(methyl)amino]picolinoyl}-2-tetrahydrofuran-2-carbonylbenzoic acid]
0.027	–	CN(c1ccc(Cl)cc1)c1ccc(C(=O)c2ccc(C(=O)c3ccc4c(c3)OCCO4)c(C(=O)O)c2)nc1 [5:26]
0.054	–	CN(c1ccc(Cl)cc1)c1ccc(C(=O)c2ccc(C(=O)c3cccc(C(F)(F)F)c3)c(C(=O)O)c2)nc1 [5:27]
0.06	–	CN(c1ccc(Cl)cc1)c1ccc(C(=O)c2ccc(C(=O)c3cccc(OC(F)(F)F)c3)c(C(=O)O)c2)nc1 [5:28]
0.245	–	CN(c1ccc(Cl)cc1)c1ccc(C(=O)c2ccc(C(=O)c3ccccc3C(F)(F)F)c(C(=O)O)c2)nc1 [5:29]
0.667	94	CN(c1ccc(Cl)cc1)c1ccc(C(=O)c2ccc(Oc3ccccc3)c(C(=O)O)c2)cn1 [6:1]
0.63	96	CN(c1ccc(Cl)cc1)c1ccc(C(=O)c2ccc(Oc3ccc(F)c(F)c3)c(C(=O)O)c2)cn1 [6:2]
1.11	–	O=C(c1ccc(Oc2ccccc2)c(C(=O)O)c1)c1ccc(-c2cccc(Cl)c2)cn1 [7:1, 5-[5-(3-Chlorophenyl)picolinoyl]-2-phenoxybenzoic acid]
0.752	–	O=C(c1ccc(Oc2ccccc2)c(C(=O)O)c1)c1ccc(-c2ccc(Cl)cc2)cn1 [7:2, 5-[5-(4-Chlorophenyl)picolinoyl]-2-phenoxybenzoic acid]
0.7	–	O=C(c1ccc(Oc2ccccc2)c(C(=O)O)c1)c1ccc(-c2cccc(C(F)(F)F)c2)cn1 [7:3, 2-Phenoxy-5-[5-(3-trifluoromethylphenyl)picolinoyl]benzoic acid]
0.082	99	O=C(c1ccc(N(CC2CC2)c2ccc(Cl)cc2)cc1)c1cc(C(=O)O)c(Oc2ccccc2)cn1 [8:1, 2-{4-[(4-Chlorophenyl)(cyclopropylmethyl)amino]benzoyl}-5-phenoxyisonicotinic acid]
0.302	99	CN(c1ccc(Cl)cc1)c1ccc(C(=O)c2cc(C(=O)O)c(Oc3ccccc3)cn2)cc1 [8:2]
0.742	94	CN(c1ccc(Cl)cc1)c1ccc(C(=O)c2ccc(Oc3ccccc3)c(C(=O)O)n2)cc1 [9:1, 6-{4-[(4-Chlorophenyl)(methyl)amino]benzoyl}-3-phenoxypicolinic acid]

IC50 [µM]	inhibition at 10 µM [%]	Compound
0.834	94	CN(c1ccc(Cl)cc1)c1ccc(C(=O)c2ccc(Oc3ccc(F)c(F)c3)c(C(=O)O)n2)cc1 [9:2]
0.154	97	CN(c1ccc(Cl)cc1)c1cnc(C(=O)c2ccc(Oc3ccc(F)cc3)c(C(=O)O)c2)nc1 [10:1, 5-{5-[(4-Chlorophenyl)(methyl)amino]pyrimidine-2-carbonyl}-2-(4-fluorophenoxy)-benzoic acid]
0.3	–	CN(c1ccc(Cl)cc1)c1cnc(C(=O)c2ccc(Oc3ccccc3)c(C(=O)O)c2)nc1 [10:3, 5-{5-[(4-Chlorophenyl)(methyl)amino]pyrimidine-2-carbonyl}-2-phenoxybenzoic acid]
0.132	–	O=C(c1ccc(Oc2ccccc2)c(C(=O)O)c1)c1ncc(N(CC2CC2)c2ccc(Cl)cc2)cn1 [10:4, 5-{5-[(4-Chlorophenyl)(cyclopropylmethyl)amino]pyrimidine-2-carbonyl}-2-phenoxybenzoic acid]
0.119	–	O=C(c1ccc(Oc2ccccc2)c(C(=O)O)c1)c1ncc(N(Cc2ccccc2)c2ccc(Cl)cc2)cn1 [10:5, 5-{5-[(Benzyl)(4-chlorophenyl)amino]pyrimidine-2-carbonyl}-2-phenoxybenzoic acid]
0.143	–	O=C(c1ccc(Oc2ccccc2)c(C(=O)O)c1)c1ccc(OCc2cccc(Cl)c2)cn1 [11:1, 5-[5-(3-Chlorobenzyloxy)picolinoyl]-2-phenoxybenzoic acid]
0.345	–	COc1ccc(Oc2ccc(C(=O)c3ccc(OCc4cccc(Cl)c4)cn3)cc2C(=O)O)cc1 [11:2, 5-[5-(3-Chlorobenzyloxy)picolinoyl]-2-(4-methoxyphenoxy)benzoic acid]
0.181	–	O=C(c1ccc(Oc2ccccc2)c(C(=O)O)c1)c1ccc(OCc2cccc(C(F)(F)F)c2)cn1 [11:5, 2-Phenoxy-5-[5-(3-trifluoromethylbenzyloxy)picolinoyl]benzoic acid]
0.351	–	O=C(c1ccc(Oc2ccccc2)c(C(=O)O)c1)c1ccc(OCc2ccc(C(F)(F)F)cc2)cn1 [11:6, 2-Phenoxy-5-[5-(4-trifluoromethylbenzyloxy)picolinoyl]benzoic acid]
0.931	–	O=C(c1ccc(Oc2ccccc2)c(C(=O)O)c1)c1ccc(OCc2ccccc2C(F)(F)F)cn1 [11:7, 2-Phenoxy-5-[5-(2-trifluoromethylbenzyloxy)picolinoyl]benzoic acid]
0.126	–	O=C(c1ccc(Oc2ccccc2)c(C(=O)O)c1)c1ccc(OCc2cccc(Br)c2)cn1 [11:8, 5-[5-(3-Bromobenzyloxy)picolinoyl]-2-phenoxybenzoic acid]
0.069	–	O=C(c1ccc(Oc2ccccc2)c(C(=O)O)c1)c1ccc(OCc2ccc(Cl)c(Cl)c2)cn1 [11:9, 5-[5-(3,4-Dichlorobenzyloxy)picolinoyl]-2-phenoxybenzoic acid]
0.38	–	COc1ccc(COc2ccc(C(=O)c3ccc(N(C)c4ccc(Cl)cc4)cn3)cc2C(=O)O)cc1 [12:1, 5-{5-[(4-Chlorophenyl)(methyl)amino]picolinoyl}-2-(4-methoxybenzyloxy)benzoic acid]
0.184	–	CN(c1ccc(Cl)cc1)c1ccc(C(=O)c2ccc(OCc3ccccc3Cl)c(C(=O)O)c2)nc1 [12:2, 2-(2-Chlorobenzyloxy)-5-{5-[(4-chlorophenyl)(methyl)amino]picolinoyl}benzoic acid]
0.364	–	CN(c1ccc(Cl)cc1)c1ccc(C(=O)c2ccc(OCc3ccc(Cl)cc3)c(C(=O)O)c2)nc1 [12:3, 2-(4-Chlorobenzyloxy)-5-{5-[(4-chlorophenyl)(methyl)amino]picolinoyl}benzoic acid]
0.15	–	CN(c1ccc(Cl)cc1)c1ccc(C(=O)c2ccc(OCc3ccc(F)c(F)c3)c(C(=O)O)c2)nc1 [12:4, 5-{5-[(4-Chlorophenyl)(methyl)amino]picolinoyl}-2-(3,4-difluorobenzyloxy)-benzoic acid]
0.166	–	CN(c1ccc(Cl)cc1)c1ccc(C(=O)c2ccc(OCc3ccc4c(c3)OCO4)c(C(=O)O)c2)nc1 [12:5, 5-{5-[(4-Chlorophenyl)(methyl)amino]picolinoyl}2-(3,4-methylenedioxy-benzyloxy)benzoic acid]

Source: US20120004244A1, “Bis Aromatic Compounds for Use as LTC4 Synthase Inhibitors” (BIOLIPOX AB, priority 2009, published 2012)
